The text below walks through data of ChEMBL document CHEMBL1201862, “PubChem BioAssay data set” (2004).

Each structure is given as a SMILES string.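 Growth conditions: 96-well plates. Treatment: test compound, 48 hours, 5 concentrations. Analysis: linear interpolation between bracketing concentrations; unreached endpoints set to highest concentration. Here, GI50 denotes the concentration required for 50% inhibition of growth.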 Calls of active or inactive are those of the source. Cut-off read from the data, not from the text of the source: active = GI50 up to about 1.1 µM and inactive = higher.

Assay in all cases: DTP human tumour cell line panel, 48 h
Assay [1] has as its system A498.
Assay [2] concerns BT-549.
Assay [3] relates to DU-145.
In assay [4] the test system is HT-29.
Assay [5] has as its system Hs-578T.
Assay [6] relates to IGROV-1.
For assay [7], the system named is KM12.
Assay [8] concerns NCI-H522.
The test system of assay [9] is OVCAR-4.
The subject of assay [10] is OVCAR-8.
Assay [11] relates to RXF 393.
Assay [12] concerns SF-268.
Assay [13] concerns SK-MEL-2.
Assay [14] has as its system SK-MEL-5.
Assay [15] has as its system SK-OV-3.
In assay [16] the test system is SN12C.
Assay [17] concerns SNB-19.
For assay [18], the system named is UACC-62.
Assay [19] has as its system UO-31.

`Brc1ccc(/N=C/C=C(\Nc2ccc(Br)cc2)C23CC4CC(CC(C4)C2)C3)cc1`: the GI50 in assay [1] is 14.1 µM (inactive); in assay [2] it was 15.7 µM (inactive); in [3] it was 14.5 µM (inactive); in assay [4], 18 µM (inactive); in [5], 27.4 µM (inactive); in assay [6], 11.3 µM (inactive). The GI50 in assay [7] was 12.7 µM (inactive); in [8], 10.9 µM (inactive); in [9] it was 12.7 µM (inactive); in [10] it was 19.4 µM (inactive); in assay [11], 14.7 µM (inactive); in assay [12], 10.2 µM (inactive). Also, the GI50 in [13] was 8.73 µM (inactive); in assay [14], 9.33 µM (inactive); in assay [15] it was 18.6 µM (inactive); in assay [16], 20.6 µM (inactive); in assay [17], 29.6 µM (inactive); in assay [18], 1.17 µM (inactive). In addition, the GI50 in [19] was 17.7 µM (inactive).
Take `Cc1cc(NCCCCCCCCCC[n+]2c(C)cc(N)c3ccccc32)c2ccccc2n1`: the GI50 was 2.08 µM (inactive) in [1]; 1.86 µM (inactive) in assay [2]; 2.49 µM (inactive) in assay [3]; 0.375 µM (active) in [5]; 0.419 µM (active) in assay [6]; 0.2 µM (active) in assay [7]. Besides, the GI50 in assay [8] was 0.253 µM (active); in assay [9] it was 1.42 µM (inactive); in [10], 0.875 µM (active); in assay [11] it was 4.1 µM (inactive); in [12], 1.43 µM (inactive); in assay [13], 1.87 µM (inactive). Further, the GI50 in assay [14] was 0.112 µM (active); in assay [15] it was 1.11 µM (active); in assay [16], 0.733 µM (active); in assay [17], 0.427 µM (active); in [18], 1.16 µM (inactive); in assay [19] it was 5.52 µM (inactive).
Take `CC(C)(/N=N/C(C)(C)C1=NCCN1)C1=NCCN1`: the GI50 in [1], in assay [2], in assay [3], in [4], in assay [5] and in [6] was > 100 µM (inactive) throughout. Besides, the GI50 in assay [7], in [9], in assay [10], in assay [11], in assay [12] and in [13] was > 100 µM (inactive) each time. The GI50 is > 100 µM (inactive) in assay [14]; > 78.5 µM (inactive) in assay [16]; > 100 µM (inactive) in assay [17]; > 100 µM (inactive) in assay [18]; > 74 µM (inactive) in assay [19].
In the case of `CCO[C@H]1C[C@@H](c2ccccc2)[C@]2(C)C[C@H](C(=O)OC)ON2O1`, the GI50 in [1], in assay [2], in assay [3], in assay [4], in assay [5] and in [6] was > 100 µM (inactive) each time. Also, the GI50 in [7], in [8], in assay [9], in assay [10], in [11] and in assay [12] was > 100 µM (inactive) each time. Besides, the GI50 in assay [13], in assay [14], in assay [16], in assay [17], in assay [18] and in [19] was > 100 µM (inactive) each time.
Regarding `CSc1nc(SC)c2ncn(C3CC(Oc4ccc(C)cc4)C(COc4ccc(C)cc4)O3)c2n1` (centres undefined), the GI50 in assay [1], in assay [2], in [3], in assay [4], in assay [5] and in assay [6] was > 100 µM (inactive) each time. Moreover, the GI50 in assay [7], in assay [8], in assay [9], in assay [10], in assay [12] and in assay [13] was > 100 µM (inactive) in each case. The GI50 in assay [14] was > 100 µM (inactive); in [15], > 100 µM (inactive); in assay [16], > 100 µM (inactive); in [17], > 100 µM (inactive); in assay [18], > 100 µM (inactive); in [19] it was 0.984 µM (active).
In the case of `Cc1cc2ncc3c(=O)n(NS(=O)(=O)c4ccc(N)cc4)ccc3n2n1`, the GI50 in [1] is 70.8 µM (inactive); in assay [2], > 100 µM (inactive); in assay [3] it was > 100 µM (inactive); in [4], > 100 µM (inactive); in [5] it was > 100 µM (inactive); in [6] it was > 100 µM (inactive). In addition, the GI50 in assay [7], in [8], in [9], in assay [10], in assay [12] and in assay [13] was > 100 µM (inactive) each time. Further, the GI50 in [14], in assay [15], in assay [16], in assay [17], in assay [18] and in assay [19] was > 100 µM (inactive) throughout.
Regarding `NC1CC(=O)c2ccccc21` (centres undefined), the GI50 in assay [1], in [2], in assay [3], in assay [4], in assay [5] and in [6] was > 100 µM (inactive) throughout. Further, the GI50 in [7], in assay [8], in assay [9], in assay [10], in assay [11] and in [12] was > 100 µM (inactive) throughout. For the same compound, the GI50 in [13], in assay [14], in assay [15], in [16], in assay [17] and in assay [18] was > 100 µM (inactive) each time. The GI50 in assay [19] is > 100 µM (inactive).
As for `C#CC(=O)OCC#CCOC(=O)C#C`, the GI50 in assay [1] is > 100 µM (inactive); in assay [2] it was 18.6 µM (inactive); in assay [3] it was 26.8 µM (inactive); in assay [4], 23 µM (inactive); in [5] it was 27.8 µM (inactive); in [7] it was 19.3 µM (inactive). Also, the GI50 is 3.23 µM (inactive) in [8]; 30.8 µM (inactive) in assay [10]; 19.1 µM (inactive) in assay [11]; > 100 µM (inactive) in assay [12]; 20.2 µM (inactive) in assay [13]; 72.9 µM (inactive) in assay [14]. The GI50 is > 100 µM (inactive) in [15]; 28.5 µM (inactive) in [16]; > 100 µM (inactive) in assay [17]; 22.7 µM (inactive) in assay [18]; 9.14 µM (inactive) in assay [19].
